Experiments:
Type in all cases: in vivo, human
[1] = test system: subjects with no apparent dysfunction in cognitive ability or movement/balance; assay: balancing ability (eyes closed, non-dominant foot lifted, timed)
Description: Due to reported improvement in balance on treatment we measured balancing ability at the end of the treatment period and at the end of the washout period. This assessment required the subject to close their eyes and lift their non-dominant foot around 6 inches off the ground. The subject was then timed to see how long they could remain upright and without significant wobbles. This was repeated three times, and the values averaged. […] This assessment required the subject to close their eyes and lift their non-dominant foot around 6 inches off the ground. The subject was then timed to see how long they could remain upright and without significant wobbles. This was repeated three times, and the values averaged. We measured balancing ability at the end of the treatment period and at the end of the washout period. This assessment required the subject to close their eyes and lift their non-dominant foot around 6 inches off the ground. The subject was then timed to see how long they could remain upright and without significant wobbles. This was repeated three times, and the values averaged.

[2] = test system: patients with postural imbalance / gait disorder; subjects; assay: clinical examination and patient/family reports of balance, gait, dizziness and falls; details: for balance (subjective): 5 g/day
Text: In addition to the mobility assessments disclosed above, mobility in a subject having a mobility disorder associated with ageing may be tested, for example, using assessments of balance and/or through monitoring the number of falls experienced by the subject.

[3] = test system: subjects (cognitive function); assay: subject and family reports of cognitive function and alertness; details: for Details on Subjective Improvement / Subjective Improvement on treatment?: 5 g/day
Text: “Cognitive function” can mean any mental process that involves a symbolic operation, for example, perception, memory, creation of imagery, awareness, reasoning, thinking and capacity for judgment. Measures of cognitive functioning include assessment tools designed to measure, for example: (a) general intelligence, (b) nonverbal intelligence, (c) achievement, (d) attention/executive functioning, (e) memory and learning, (f) visual-motor and motor functioning and (g) language. Such assessment tools are well-known in the art and include, for example, Wechsler Adult Intelligence Scale and Woodcock-Johnson III Tests of Cognitive Abilities (both for assessing general intelligence), Raven Progressive Matrices (for assessing nonverbal intelligence), Wide Range Achievement Test and Woodcock-Johnson III Tests of Achievement (for assessing academic achievement), Conners' Continuous Performance Test II (for assessing attention/executive functioning), Wide Range Assessment of Memory and Learning (for assessing memory and learning), Bender Visual-Motor Gestalt Test, Halstead-Reitan Grip Strength Test, Halstead-Reitan Finger Tapping Test and Lafayette Grooved Pegboard Task (all for assessing visual-motor and motor functioning) and Peabody Picture Vocabulary Test (for assessing language).

[4] = Example 1: after one-month course ceased
[5] = Example 1: remains on 4.5 g per day
[6] = Example 1: person, 4.5 g/day, after 2-3 weeks of treatment

CC(=O)NC(CC(C)C)C(=O)O (racemic) [acetyl-DL-leucine]
time able to remain balanced (average of 3 tests) ([1]; Example 7: 66 M, end of washout period): 4.01 s
time able to remain balanced (average of 3 tests) ([1]; Example 7: 66 M, last day of treatment period): 7.27 s
time able to remain balanced (average of 3 tests) ([1]; Example 9: 55 F, end of washout period): 8 s
time able to remain balanced (average of 3 tests) ([1]; Example 9: 55 F, last day of treatment period): 12 s
time able to remain balanced (average of 3 tests) ([1]; Example 11: 53 M, end of washout period): 3.1 s
time able to remain balanced (average of 3 tests) ([1]; Example 11: 53 M, last day of treatment period): 7.9 s
balance after ceasing treatment [2, 4]: remained good for two weeks then deteriorated
walking confidence / balance ([2]; Example 1: person, 4.5 g/day, by 7-10 days of treatment): more confident walking due to improved balance
improvements of first and second months, on further treatment [2, 5]: have continued
improvements noticed in first month, on second treatment ([2]; Example 1: second one-month course, 4.5 g/day): rapidly returned
dizziness symptoms ([2]; Example 2: person, balance disorder/senile gait disorder, 3 g/day first week then 5 g/day, Day 14): improvement of dizziness symptoms
frequency of falls ([2]; Example 2: person, 3 g/day first week then 5 g/day, Day 14): significant reduction in the frequency of falls
hypokinetic-rigid syndrome ([2]; Example 2: person, Day 14): No change
dizziness symptoms after suspension of treatment ([2]; Example 2: treatment suspended Day 56, re-evaluated Day 62): increase of dizziness symptoms two days after suspension of treatment
time when improvement began ([2]; Example 3: person): second week of treatment
dizziness and imbalance (spouse feedback) ([2]; Example 3: person, 3 g/day one week then 5 g/day, 22 days after beginning treatment): significant reduction of dizziness and imbalance
gait (spouse feedback) ([2]; Example 3: person, 22 days after beginning treatment): significant improvement of gait
gait and imbalance (patient and child report) ([2]; Example 4: person, 3 g/day one week then 5 g/day, 3 weeks after beginning treatment): significantly improved
clinical examination of gait and balance ([2]; Example 5: Day 42, 3 gram per day): significant improvement of gait and balance
spouse report on re-evaluation ([2]; Example 5: Day 42, 3 gram per day restarted Day 28): dramatic improvement with impact on functioning and quality of living
falls ([2]; Example 5: Day 42, four falls over three months before Day 0): No further falls were reported
symptoms after medication was stopped ([2]; Example 5: medication stopped after two weeks): worsening of symptoms
gait (patient and spouse report) ([2]; Example 5: patient, progressive gait disorder, 3 gram per day for two weeks): considerable improvement of gait
improvements on lower dosage ([2]; Example 6: 1 g/1 g/1 g for over 4 months): remained unchanged
sway ([2]; Example 6: 5 g/day for 1 month): became visibly calmer
stance with feet together, tandem stance and gait ([2]; Example 6: 5 g/day for 1 month, tandem stance and gait not possible at baseline): possible with increased omnidirectional sway
postural stability (subjective) ([2]; Example 6: 5 g/day for 1 month, walking and stairs): subjectively more postural stable
frequency of falls ([2]; Example 6: current state on 1 g/1 g/1 g, 2-3 per month before treatment): 0-1 /month
falls during therapy period ([2]; Example 6: therapy period of 1 month, 2-3 per month before): did not record any falls
balance (subjective) ([2]; Example 7: 66 M): improvement in their balance
balance (subjective) ([2]; Example 8: 29 M): no difference in balance
cognition after ceasing treatment [3, 4]: gradually declined to their pre-treatment status over one month
alertness on waking (subject's description) [3, 6]: fully alert on waking
cognitive function, spatial awareness and general demeanor (family) [3, 6]: significant improvement in their cognitive function, spatial awareness and general demeanor
confusion evident prior to treatment [3, 5]: entirely absent
communication and executive function (family) ([3]; Example 6: 5 g/day for 1 month): executive function improved
energy, agility (subjective) ([3]; Example 6: 5 g/day for 1 month): more energy, was more agile and interactive
Details on Subjective Improvement ([3]; Example 7: 66 M): improvement in general alertness and a shortening of the time required to go from ‘asleep’ to ‘fully awake’
Subjective Improvement on treatment? ([3]; Example 7: 66 M): Yes
Details on Subjective Improvement ([3]; Example 8: 29 M): improvement in general alertness. They also reported a decrease in anxiety
Subjective Improvement on treatment? ([3]; Example 8: 29 M): Yes
Details on Subjective Improvement ([3]; Example 9: 55 F): shortening of the time required to go from ‘asleep’ to ‘fully awake’
Subjective Improvement on treatment? ([3]; Example 9: 55 F): Yes
Subjective Improvement on treatment? ([3]; Example 10: […]): no difference between on and off medication
Subjective Improvement on treatment? ([3]; Example 10: […], listed as acetyl-leucine): No
Details on Subjective Improvement ([3]; Example 11: 53 M): improvement in general alertness and a shortening of the time required to go from ‘asleep’ to ‘fully awake’
Subjective Improvement on treatment? ([3]; Example 11: 53 M): Yes
Details on Subjective Improvement ([3]; Example 12: 48 F): feeling less tired than usual and taking less time than was usual to go from asleep to fully awake
Subjective Improvement on treatment? ([3]; Example 12: 48 F): Yes

From patent US12329733B2, “Acetyl-leucine or a pharmaceutically acceptable salt thereof for improved mobility and cognitive function” (INTRABIO LTD., priority 2016, dated 2025)
